{"source": "patent US20090306050A1", "about": "“TREATMENT AND PREVENTION OF DEPRESSION WITH PAIN, DEPRESSION SECONDARY TO PAIN, AND OF NEUROPATHIC PAIN” (priority 2006, published 2009)", "key": {"ECG interval": {"system": "ECG interval", "details": "rats infused with the antidepressant; cited from earlier work"}, "neuropathic pain": {"system": "neuropathic pain", "details": "in vivo; cited from earlier work"}, "[1]": {"details": "fatal poisoning/overdose, Scotland, England and Wales; cited from earlier work"}, "severe neuropathic pain": {"system": "severe neuropathic pain", "assay": "Example 2: diabetic clinic patients with severe neuropathic pain", "type": "in vivo", "text": "Four patients at a diabetic clinic present with severe neuropathic pain. Conventional analgesics are of no benefit."}, "NA and 5HT reuptake": {"system": "NA and 5HT reuptake", "assay": "NA versus 5HT reuptake selectivity from comparative Ki's (Bolden-Watson and Richelson)", "type": "biochemical", "text": "There are a number of ways in which the ratio of NA to 5HT reuptake in antidepressant molecules may be measured. The selectivity a drug for various receptors may be compared by use of comparative Ki's and not comparative IC 50 values. (Bolden-Watson, C and Richelson, E., Life Sci, (52), 1993, 1023-1029), which is hereby incorporated by reference."}, "D2 receptor": {"target": "D2 receptor (Homo sapiens, UniProt P14416)", "sequence (P14416 whole entry)": "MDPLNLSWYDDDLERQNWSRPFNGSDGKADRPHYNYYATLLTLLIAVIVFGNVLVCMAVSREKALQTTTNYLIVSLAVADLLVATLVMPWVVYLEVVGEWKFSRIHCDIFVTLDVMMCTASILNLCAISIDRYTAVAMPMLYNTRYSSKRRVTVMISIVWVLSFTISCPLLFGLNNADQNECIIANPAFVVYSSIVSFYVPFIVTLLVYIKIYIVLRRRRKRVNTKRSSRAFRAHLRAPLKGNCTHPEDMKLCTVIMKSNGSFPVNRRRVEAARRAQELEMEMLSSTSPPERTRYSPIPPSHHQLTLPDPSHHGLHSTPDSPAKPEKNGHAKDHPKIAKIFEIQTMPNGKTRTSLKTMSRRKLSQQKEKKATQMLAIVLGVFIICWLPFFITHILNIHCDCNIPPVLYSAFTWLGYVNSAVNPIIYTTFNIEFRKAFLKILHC", "assay": "activity at the dopamine D2 receptor"}, "[2]": {"system": "major depression with aches and pains", "assay": "Example 1: patients with major depression and multiple aches and pains", "type": "in vivo", "details": "three patients, commenced 70 mg twice daily, final 140mg to 280mg daily", "description": "Three patients who fulfilled criteria for major depression present with multiple aches and pains for which there is no obvious physical cause. […] The final dose of medication ranges from 140mg daily to 280mg daily."}, "serotonin synthesis": {"system": "serotonin synthesis", "assay": "serotonin synthesis in the brain", "details": "in vivo"}, "sedation": {"assay": "sedation", "details": "in vivo"}}}
{"smiles": "CN(C)CCC=C1c2ccccc2CCc2ccccc21", "note": "[amitriptyline]", "values": [{"measurement": "prolongation of the ECG interval", "setting": "ECG interval", "value": "prolong the ECG interval"}]}
{"smiles": "CC(NC(C)(C)C)C(=O)c1cccc(Cl)c1", "note": "(centres unmarked) [buproprion]", "values": [{"measurement": "effectiveness in neuropathic pain", "setting": "neuropathic pain", "value": "has not been found to be effective"}]}
{"smiles": "CNCCCN1c2ccccc2CCc2ccccc21", "note": "[desipramine]", "values": [{"measurement": "fatalities per million prescriptions", "setting": "[1]", "value": 200.9, "unit": "per million prescriptions"}, {"measurement": "prolongation of the ECG interval", "setting": "ECG interval", "value": "prolong the ECG interval"}]}
{"smiles": "CNCC[C@H](Oc1cccc2ccccc12)c1cccs1", "note": "[duloxetine]", "values": [{"measurement": "response of neuropathic pain to prior treatment", "setting": "severe neuropathic pain; four diabetic patients, prescribed before lofepramine", "value": "failed to respond"}]}
{"smiles": "CN(C)CCCN1c2ccccc2CCc2ccccc21", "note": "[imipramine]", "values": [{"measurement": "prolongation of the ECG interval", "setting": "ECG interval", "value": "prolong the ECG interval"}]}
{"smiles": "CN(CCCN1c2ccccc2CCc2ccccc21)CC(=O)c1ccc(Cl)cc1", "note": "[lofepramine]", "values": [{"measurement": "NA:5HT ratio relative to desipramine", "setting": "NA and 5HT reuptake", "value": "about four times that of desipramine"}, {"measurement": "NE: 5-HT ratio relative to milnacipran", "setting": "NA and 5HT reuptake", "value": "higher than that of milnacipran"}, {"measurement": "activity at the D2 receptor", "setting": "D2 receptor", "value": "potent activity"}, {"measurement": "improvement in symptoms including pain", "setting": "[2]", "value": "All three show improvement in all symptoms including pain within four weeks"}, {"measurement": "relief of neuropathic pain", "setting": "severe neuropathic pain; four diabetic patients, 70 mg tds, after failure of analgesics and duloxetine", "value": "dramatic relief of pain in 3 of the 4 cases"}, {"measurement": "response after escalation of the dose", "setting": "severe neuropathic pain; patient 4, escalated dose", "value": "results in improvement"}, {"measurement": "effect on serotonin synthesis in the brain", "setting": "serotonin synthesis", "value": "up-regulate serotonin synthesis in the brain"}, {"measurement": "induction of sedation", "setting": "sedation", "value": "does not induce sedation"}, {"measurement": "fatalities per million prescriptions", "setting": "[1]", "value": 1.3, "unit": "per million prescriptions"}, {"measurement": "prolongation of the ECG interval", "setting": "ECG interval", "value": "does not"}]}
{"smiles": "COc1ccc(C(CN(C)C)C2(O)CCCCC2)cc1", "note": "(centres unmarked) [venlafaxine]", "values": [{"measurement": "fatalities per million prescriptions", "setting": "[1]", "value": 13.2, "unit": "per million prescriptions"}]}
